Test results: patent US20120046357A1, “Benzamide and Napthamide Derivatives Inhibiting Nuclear Factor-Kappa (B) - (NK-kB)” (Profectus Biosciences, Inc., priority 2009, published 2012)
Counter-ions that a name gives are not always drawn. Like-named read-outs stand apart in the source and are kept apart here.

Legend:
[1] = tested on: IL-6 release from RAW264.7 cells; assay: LPS-stimulated IL-6 release from RAW264.7 cells (ELISA); type: cell-based, mouse; conditions: 2 h pretreatment, 1 μg/mL LPS 20-24 h, read-out: RAW 264.7 IL-6 release EC50
Procedure: RAW 264.7 cells were seeded at 4×10^4 cells per well n complete growth medium in 96 well white TC plates with clear bottoms one day prior to the assay. The next day the cells were washed once and 100 μL fresh growth media was added. Cells were pretreated with 0.5 μL from a 6 point 200× dilution series of the test compounds in DMSO for 2 hours. Following pretreatment with the drugs, the inflammatory response was induced by adding 5 μL of a 20 μg/mL solution of LPS (Sigma). The cells were incubated in the presence of the drugs and 1 μg/mL LPS for another 20-24 hours. Typically after treatment the total DMSO was […] of the culture volume and the final concentrations of the compounds were approximately: 40, 20, 10, 1, 0.2 and 0 μM depending on the MW of each compound. Modified dilution series were prepared as needed to get adequate dose response curves without changing the % DMSO. Samples were run in duplicate or triplicate and included DMSO treated control wells with and without LPS stimulation. Drugs with a known activity such as Parthenolide or DHMEQ were run as experimental controls. After 20-24 hours LPS activation, the media supernatant was collected from the cells and replaced with fresh media. The supernatant samples were cleared by centrifugation at 1,000×g for 5 minutes, transferred to fresh storage plates, and stored frozen at −30° C.
After determining the appropriate supernatant dilutions experimentally, mIL-6 levels in the supernatants were quantified using Quantikine™ mouse IL-6 immunoassay (R&D Systems) according to the manufacturer's protocol. […] diluted in Calibrator Diluent were added to 50 μL of Assay Diluent in microplate wells pre-coated with an anti-mouse IL-6 capture antibody. Controls included a calibrated positive IL-6 control sample, non-specific binding (NSB) wells containing Calibrator Diluent but no IL-6, and a recombinant mouse IL-6 standard dilution series (10-1000 pg/mL). The plates were incubated at room temperature for 2 hours with shaking and then washed 5 times with 400 μL 1× Wash Buffer. […] anti-mouse IL-6 antibody was added to each well to detect IL-6 captured on the plate. The plates were incubated at room temperature for 2 hours and then washed 5 times with 400 μL 1× Wash Buffer. Equal volumes of Color Reagents A and B were mixed and 100 μL of this HRP Substrate Solution was added to each well on the plate. The blue color was allowed to develop for 30 minutes and then the reaction was stopped using 100 μL of Stop Solution yielding a yellow color. Absorbance at 450 nm with a reference wavelength subtracted at 595 nm was recorded using a Becton-Dickinson DTX 880 Multimode Detector.
The concentration of mIL-6 in the unknown samples was determined from a curve-fit of the mIL-6 standard absorbance data and multiplying by the dilution factor. The maximum activity achieved in the absence of the inhibitor (DMSO+LPS treated wells) was arbitrarily given a value of 100%; likewise the minimum activity in the absence of the stimulant (no LPS) was assigned a value of 0%. Inhibition of the amount of mIL-6 cytokine released in the drug treated wells was calculated relative to the maximum activation in the DMSO+LPS treated control wells (ie. % inhibition=100−(drug+LPS treated)/(DMSO+LPS treated)). Dose response curves were used to determine the effective concentration to inhibit 50% of the mIL-6 cytokine released (IC50) by means of a SigmaPlot macro which fits a sigmoidal dose-response curve to the (log 10) μM concentration versus % inhibition. […] This technique yields an objective value for the IC50 provided that 50% inhibition was approached at the concentrations tested. FIG. 5 illustrates the effect of the compound of Example 10 on inhibiting IL-6 release.

RelB = target: T1, RelB (Homo sapiens, UniProt Q01201); assay: TransAM NF-κB family DNA binding ELISA, RelB; type: biochemical; conditions: for IC50: binding to NF-κB consensus oligonucleotide, cells without % sign
T1 sequence (Q01201 1-579): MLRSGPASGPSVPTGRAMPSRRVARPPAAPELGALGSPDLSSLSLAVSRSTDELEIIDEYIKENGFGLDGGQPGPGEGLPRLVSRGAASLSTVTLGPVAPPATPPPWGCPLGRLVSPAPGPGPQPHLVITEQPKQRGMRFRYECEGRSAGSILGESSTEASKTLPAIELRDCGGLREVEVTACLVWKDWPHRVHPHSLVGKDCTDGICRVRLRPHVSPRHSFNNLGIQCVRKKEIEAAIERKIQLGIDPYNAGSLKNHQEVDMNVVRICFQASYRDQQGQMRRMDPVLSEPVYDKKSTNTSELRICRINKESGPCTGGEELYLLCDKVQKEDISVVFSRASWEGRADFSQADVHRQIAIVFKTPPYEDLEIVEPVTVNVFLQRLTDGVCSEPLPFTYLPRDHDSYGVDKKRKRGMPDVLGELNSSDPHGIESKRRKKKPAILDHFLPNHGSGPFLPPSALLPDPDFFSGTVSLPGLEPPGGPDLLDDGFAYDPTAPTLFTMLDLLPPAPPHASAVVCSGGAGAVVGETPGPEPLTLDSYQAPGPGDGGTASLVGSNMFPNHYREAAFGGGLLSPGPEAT
Procedure: The binding activity of NF-κB heterodimer or homodimer subunits from activated nuclear extracts or purified recombinant NF-κB proteins exposed to the drug compounds was evaluated using the TransAM NF-κB Family binding ELISA (Active Motif). 3-5 μg of nuclear extracts from TNFα activated Hela or Raji cells (Active Motif) or 20 ng of purified recombinant proteins (p65 and p50 from Active Motif, p52 from Santa Cruz) were incubated for 1 hour at room temperature with 20 μL drug compounds diluted in Complete Lysis buffer without DTT. Treated samples were then transferred to 30 μL Complete Binding Buffer (with DTT) in microplate wells pre-coated with the NF-κB consensus oligonucleotide. […] The plate was incubated for 1 hour at room temperature with gentle shaking and then washed 3 times with 200 μL 1× Wash Buffer. NF-κB p65, p50, p52, RelB, or c-Rel subunits bound to the plate were detected with 100 μL of the primary antibody (diluted 1:1000 in 1× Antibody Buffer) specific for that subunit. The plate was incubated for 1 hour at room temperature and then washed 3 times with 200 μL 1× Wash Buffer. Next, 100 μL of a HRP conjugated goat anti-rabbit antibody (diluted 1:1,000 in 1× Antibody Buffer) was added to each well. The plate was incubated for 1 hour at room temperature and then washed 4 times with 200 μL 1× Wash Buffer. 100 μL of room temperature Developing Solution was added to each well. The reaction was allowed to develop for 2-10 minutes until a medium dark blue color developed (depending on the subunit activity in the lot of extract or lot of recombinant protein used) and then the reaction was stopped with 100 μL Stop Solution yielding a yellow color. Absorbance was recorded using a Becton-Dickinson DTX 880 Multimode Detector at 450 nm with a reference wavelength subtracted at 620 nm. FIGS. 2, 3 and 4 illustrate the effect of Example 10 on inhibiting RelA, RelB and c-Rel binding to NF-κB sites.

[2] = Mus musculus, RAW264.7, RAW264.7 cells

Structure (SMILES) | EC50 [1, 2] [nM] | inhibition at 5 µM (RelB) [%] | EC50 ([1]; RAW264.7 cells, trifluoroacetate) [nM] | IC50 (RelB) [nM]
COc1ccc(C(=O)NC2=CC(=O)C3OC3C2O)c(O)c1 (racemic) [Example 5, (±)-2-hydroxy-N-(2-hydroxy-5-oxo-7-oxabicyclo[4.1.0]hept-3-en-3-yl)-4-methoxybenzamide] | 420 | 17 |  | 
CN(C)c1ccc(C(=O)NC2=CC(=O)C3OC3C2O)c(O)c1 (racemic) [Example 19, (±)-4-(dimethylamino)-2-hydroxy-N-(2-hydroxy-5-oxo-7-oxabicyclo[4.1.0]hept-3-en-3-yl)benzamide trifluoroacetate] |  |  | 740 | 3300
COc1cc(N(C)C)ccc1C(=O)NC1=CC(=O)C2OC2C1O (racemic) [Example 20, (±)-4-(dimethylamino)-N-(2-hydroxy-5-oxo-7-oxabicyclo[4.1.0]hept-3-en-3-yl)-2-methoxybenzamide] | 240 |  |  | 1000
O=C(NC1=CC(=O)C2OC2C1O)c1cccc(Cl)c1O (racemic) [Example 6, (±)-3-chloro-2-hydroxy-N-(2-hydroxy-5-oxo-7-oxabicyclo[4.1.0]hept-3-en-3-yl)benzamide] | 2500 | 13 |  | 
COc1c(C(=O)NC2=CC(=O)C3OC3C2O)ccc(F)c1F (racemic) [Example 16, (±)-3,4-difluoro-N-(2-hydroxy-5-oxo-7-oxabicyclo[4.1.0]hept-3-en-3-yl)-2-methoxybenzamide] | 270 |  |  | 2100
Cc1ccc(C(C)C)c(C(=O)NC2=CC(=O)C3OC3C2O)c1O (racemic) [Example 17, (±)-2-hydroxy-N-(2-hydroxy-5-oxo-7-oxabicyclo[4.1.0]hept-3-en-3-yl)-6-isopropyl-3-methylbenzamide] | 480 |  |  | 82000
O=C(NC1=CC(=O)C2OC2C1O)c1ccc(C(F)(F)F)cc1O (racemic) [Example 1, 2-hydroxy-N-(2-hydroxy-5-oxo-7-oxabicyclo[4.1.0]hept-3-en-3-yl)-4-(trifluoromethyl)benzamide] | 3100 | 6 |  | 
CN(C)c1ccc(C(=O)NC2=CC(=O)C3OC3C2O)c(O)c1 (racemic) [Example 10, (±)-4-(dimethylamino)-2-hydroxy-N-(2-hydroxy-5-oxo-7-oxabicyclo[4.1.0]hept-3-en-3-yl)benzamide] | 440 |  |  | 23000
O=C(NC1=CC(=O)C2OC2C1O)c1ccc2ccccc2c1O (racemic) [Example 8, (±)-1-hydroxy-N-(2-hydroxy-5-oxo-7-oxabicyclo[4.1.0]hept-3-en-3-yl)-2-naphthamide] | 300 | 15 |  | 
Cc1cccc(C(=O)NC2=CC(=O)C3OC3C2O)c1O (racemic) [Example 4, (±)-2-hydroxy-N-(2-hydroxy-5-oxo-7-oxabicyclo[4.1.0]hept-3-en-3-yl)-3-methylbenzamide] | 760 | 9 |  | 

Now from value to compound:

EC50 [1, 2] [nM] | inhibition at 5 µM (RelB) [%] | EC50 ([1]; RAW264.7 cells, trifluoroacetate) [nM] | IC50 (RelB) [nM] | Structure (SMILES)
1400 | 6 |  |  | O=C(NC1=CC(=O)C2OC2C1O)c1cc2ccccc2cc1O (racemic) [Example 7, (±)-3-hydroxy-N-(2-hydroxy-5-oxo-7-oxabicyclo[4.1.0]hept-3-en-3-yl)-2-naphthamide]
1300 | 18 |  |  | O=C(NC1=CC(=O)C2OC2C1O)c1ccc(Cl)cc1O (racemic) [Example 2, (±)-4-chloro-2-hydroxy-N-(2-hydroxy-5-oxo-7-oxabicyclo[4.1.0]hept-3-en-3-yl)benzamide]
220 |  |  | 3900 | O=C(NC1=CC(=O)C2OC2C1O)c1cc2cc(Br)ccc2cc1O (racemic) [Example 15, (±)-7-bromo-3-hydroxy-N-(2-hydroxy-5-oxo-7-oxabicyclo[4.1.0]hept-3-en-3-yl)-2-naphthamide]
850 |  |  | 10000 | COc1ccc2cc(O)c(C(=O)NC3=CC(=O)C4OC4C3O)cc2c1 (racemic) [Example 11, (±)-3-hydroxy-N-(2-hydroxy-5-oxo-7-oxabicyclo[4.1.0]hept-3-en-3-yl)-7-methoxy-2-naphthamide]
480 | 10 |  |  | Cc1ccc(C(=O)NC2=CC(=O)C3OC3C2O)c(O)c1 (racemic) [Example 3, (±)-2-hydroxy-N-(2-hydroxy-5-oxo-7-oxabicyclo[4.1.0]hept-3-en-3-yl)-4-methylbenzamide]
6500 | 32 |  |  | O=C(NC1=CC(=O)C2OC2C1O)c1cc(Br)ccc1O (racemic) [Example 9, (±)-5-bromo-2-hydroxy-N-(2-hydroxy-5-oxo-7-oxabicyclo[4.1.0]hept-3-en-3-yl)benzamide]
